Test results reported in ChEMBL document CHEMBL3046027, “In vitro and in vivo antifungal activity of synthetic pure isothiocyanates against Sclerotinia sclerotiorum” (Pest Manag Sci, 2011).

What was measured:
Sclerotinia sclerotiorum [1] = assay: Fungistatic activity in Sclerotinia sclerotiorum assessed as inhibition of mycelial growth in contact phase at 1688 umol/l measured at 20 degC after 5 days relative to control; assay type: functional; conditions: 120 h, read-out: GI
Sclerotinia sclerotiorum [2] = assay: Fungistatic activity in Sclerotinia sclerotiorum assessed as inhibition of mycelial growth in volatile phase at 588 umol/l measured at 20 degC after 5 days relative to control; assay type: functional; conditions: 120 h, read-out: GI
Sclerotinia sclerotiorum [3] = assay: Fungistatic activity in Sclerotinia sclerotiorum assessed as viability in volatile phase at 844 umol/l measured at 20 degC after 5 days relative to control; assay type: functional; conditions: 120 h, read-out: GI
Sclerotinia sclerotiorum [4] = assay: Antifungal activity against Sclerotinia sclerotiorum assessed as inhibition of mycelial growth in volatile phase at 422 umol/l measured at 20 degC after 5 days; assay type: functional; conditions: 120 h, read-out: GI
Sclerotinia sclerotiorum [5] = assay: Antifungal activity against Sclerotinia sclerotiorum assessed as inhibition of mycelial growth in contact phase at 759 umol/l measured at 20 degC after 5 days; assay type: functional; conditions: 120 h, read-out: GI
Sclerotinia sclerotiorum [6] = assay: In vivo antifungal Sclerotinia sclerotiorum in Pepper (Capsicum annuum L. cv. Sera Demre) assessed as inhibition of mycelial growth in volatile phase at 168 umol/L measured after 10 to 14 weeks; assay type: functional
Sclerotinia sclerotiorum [7] = assay: Antifungal activity against Sclerotinia sclerotiorum assessed as inhibition of germination in volatile phase at 422 umol/l measured at 20 degC after 5 days; assay type: functional; conditions: 120 h
Sclerotinia sclerotiorum [8] = assay: Antifungal activity against Sclerotinia sclerotiorum assessed as inhibition of mycelial growth in volatile phase at 588 umol/l measured at 20 degC after 5 days; assay type: functional; conditions: 120 h, read-out: GI
Sclerotinia sclerotiorum [9] = assay: Antifungal activity against Sclerotinia sclerotiorum assessed as inhibition of germination in volatile phase at 253 umol/l measured at 20 degC after 5 days; assay type: functional; conditions: 120 h
Sclerotinia sclerotiorum [10] = assay: Fungistatic activity in Sclerotinia sclerotiorum assessed as inhibition of mycelial growth in volatile phase measured at 20 degC after 5 days; assay type: functional, organism-based; conditions: 120 h
Sclerotinia sclerotiorum [11] = assay: Fungistatic activity in Sclerotinia sclerotiorum assessed as inhibition of carpogenic germination in volatile phase at 840 umol/l measured at 20 degC after 5 days relative to control; assay type: functional; conditions: 120 h
Sclerotinia sclerotiorum [12] = assay: Fungitoxic activity in Sclerotinia sclerotiorum assessed as inhibition of mycelial growth in contact phase at 2531 umol/l measured at 20 degC after 5 days relative to control; assay type: functional; conditions: 120 h, read-out: GI
Sclerotinia sclerotiorum [13] = assay: Antifungal activity against Sclerotinia sclerotiorum assessed as inhibition of mycelial growth in volatile phase at 84 umol/l measured at 20 degC after 5 days; assay type: functional; conditions: 120 h, read-out: GI
Sclerotinia sclerotiorum [14] = assay: Antifungal activity against Sclerotinia sclerotiorum assessed as inhibition of mycelial growth in contact phase at 1688 umol/l measured at 20 degC after 5 days; assay type: functional; conditions: 120 h, read-out: GI
Sclerotinia sclerotiorum [15] = assay: Antifungal activity against Sclerotinia sclerotiorum assessed as inhibition of mycelial growth in contact phase at 844 umol/l measured at 20 degC after 5 days; assay type: functional; conditions: 120 h, read-out: GI
Sclerotinia sclerotiorum [16] = assay: Antifungal activity against Sclerotinia sclerotiorum assessed as inhibition of germination in volatile phase at 844 umol/l measured at 20 degC after 5 days; assay type: functional; conditions: 120 h
Sclerotinia sclerotiorum [17] = assay: Fungistatic activity in Sclerotinia sclerotiorum assessed as inhibition of carpogenic germination in volatile phase at 42 umol/l measured at 20 degC after 5 days relative to control; assay type: functional; conditions: 120 h
Sclerotinia sclerotiorum [18] = assay: Antifungal activity against Sclerotinia sclerotiorum assessed as inhibition of mycelial growth in volatile phase at 42 umol/l measured at 20 degC after 5 days; assay type: functional; conditions: 120 h, read-out: GI
Sclerotinia sclerotiorum [19] = assay: Antifungal activity against Sclerotinia sclerotiorum assessed as inhibition of mycelial growth in contact phase at 591 umol/l measured at 20 degC after 5 days; assay type: functional; conditions: 120 h, read-out: GI
Sclerotinia sclerotiorum [20] = assay: Antifungal activity against Sclerotinia sclerotiorum assessed as inhibition of germination in volatile phase at 84 umol/l measured at 20 degC after 5 days; assay type: functional; conditions: AT84, 120 h
Sclerotinia sclerotiorum [21] = assay: Fungistatic activity in Sclerotinia sclerotiorum assessed as inhibition of carpogenic germination in volatile phase at 422 umol/l measured at 20 degC after 5 days relative to control; assay type: functional; conditions: 120 h
Sclerotinia sclerotiorum [22] = assay: Antifungal activity against Sclerotinia sclerotiorum assessed as inhibition of mycelial growth in volatile phase at 840 umol/l measured at 20 degC after 5 days; assay type: functional; conditions: 120 h, read-out: GI
Sclerotinia sclerotiorum [23] = assay: Fungistatic activity in Sclerotinia sclerotiorum assessed as sclerotial viability measured at 20 degC after 5 days; assay type: functional, organism-based; conditions: 120 h
Sclerotinia sclerotiorum [24] = assay: Antifungal activity against Sclerotinia sclerotiorum assessed as inhibition of mycelial growth in contact phase at 2531 umol/l measured at 20 degC after 5 days; assay type: functional; conditions: 120 h, read-out: GI
Sclerotinia sclerotiorum [25] = assay: In vivo antifungal Sclerotinia sclerotiorum in Pepper (Capsicum annuum L. cv. Sera Demre) assessed as inhibition of mycelial growth in volatile phase at 84 umol/L measured after 10 to 14 weeks; assay type: functional
Sclerotinia sclerotiorum [26] = assay: Fungistatic activity in Sclerotinia sclerotiorum assessed as inhibition of mycelial growth in contact phase measured at 20 degC after 5 days; assay type: functional, organism-based; conditions: 120 h
Sclerotinia sclerotiorum [27] = assay: Antifungal activity against Sclerotinia sclerotiorum assessed as inhibition of germination in volatile phase at 42 umol/l measured at 20 degC after 5 days; assay type: functional; conditions: 120 h
Sclerotinia sclerotiorum [28] = assay: Fungistatic activity in Sclerotinia sclerotiorum assessed as inhibition of carpogenic germination in volatile phase at 84 umol/l measured at 20 degC after 5 days relative to control; assay type: functional; conditions: AT84, 120 h

## CCCCN=C=S [BUTYL ISOTHIOCYANATE]
Sclerotinia sclerotiorum [1]
  inhibition of growth at 1688 µM: 100%
Sclerotinia sclerotiorum [2]
  inhibition of growth at 588 µM: 100%
Sclerotinia sclerotiorum [3]
  inhibition of growth at 844 µM: 100%
Sclerotinia sclerotiorum [4]
  inhibition of growth at 422 µM: 70.3%
Sclerotinia sclerotiorum [5]
  inhibition of growth at 759 µM: 11.7%
Sclerotinia sclerotiorum [6]
  inhibition in vivo at 168 µM: 63.3%
Sclerotinia sclerotiorum [7]
  inhibition at 422 µM: 46.7%
Sclerotinia sclerotiorum [8]
  inhibition of growth at 588 µM: 72.3%
Sclerotinia sclerotiorum [9]
  inhibition at 253 µM: 13.3%
Sclerotinia sclerotiorum [10]
  EC50: 87.3 µM
Sclerotinia sclerotiorum [11]
  inhibition at 840 µM: 92.5%
Sclerotinia sclerotiorum [12]
  inhibition of growth at 2531 µM: 100%
Sclerotinia sclerotiorum [13]
  inhibition of growth at 84 µM: 48.7%
Sclerotinia sclerotiorum [14]
  inhibition of growth at 1688 µM: 100%
Sclerotinia sclerotiorum [15]
  inhibition of growth at 844 µM: 29.2%
Sclerotinia sclerotiorum [16]
  inhibition at 844 µM: 100%
Sclerotinia sclerotiorum [17]
  inhibition at 42 µM: 77.5%
Sclerotinia sclerotiorum [18]
  inhibition of growth at 42 µM: 22.8%
Sclerotinia sclerotiorum [19]
  inhibition of growth at 591 µM: 5%
Sclerotinia sclerotiorum [20]
  inhibition at 84 µM: 0%
Sclerotinia sclerotiorum [21]
  inhibition at 422 µM: 82.5%
Sclerotinia sclerotiorum [22]
  inhibition of growth at 840 µM: 100%
Sclerotinia sclerotiorum [23]
  EC50: 403 µM
Sclerotinia sclerotiorum [24]
  inhibition of growth at 2531 µM: 100%
Sclerotinia sclerotiorum [25]
  inhibition in vivo at 84 µM: 31.7%
Sclerotinia sclerotiorum [26]
  EC50: 932 µM
Sclerotinia sclerotiorum [27]
  inhibition at 42 µM: 0%
Sclerotinia sclerotiorum [28]
  inhibition at 84 µM: 80%
